From ChEMBL document CHEMBL1201862, “PubChem BioAssay data set” (2004)
The source made the active and inactive calls.

Columns and labels:
[1] = target: T1, Intestinal-type alkaline phosphatase (Homo sapiens, UniProt P09923); test: human intestinal alkaline phosphatase activators, dose response, biochemical, luminescence, uHTS hits (AID 463120); assay type: functional
[2] = target: T2, Alkaline phosphatase, tissue-nonspecific isozyme (Homo sapiens, UniProt P05186); test: activation of tissue-nonspecific alkaline phosphatase – biochemical, TNAP isozyme, human IAP uHTS hits, selectivity assay for human IAP activator project, dose response (AID 488886); assay type: functional;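 note: potency of compounds raising TNAP activity as a selectivity check on IAP activators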
T2 sequence (P05186 whole entry): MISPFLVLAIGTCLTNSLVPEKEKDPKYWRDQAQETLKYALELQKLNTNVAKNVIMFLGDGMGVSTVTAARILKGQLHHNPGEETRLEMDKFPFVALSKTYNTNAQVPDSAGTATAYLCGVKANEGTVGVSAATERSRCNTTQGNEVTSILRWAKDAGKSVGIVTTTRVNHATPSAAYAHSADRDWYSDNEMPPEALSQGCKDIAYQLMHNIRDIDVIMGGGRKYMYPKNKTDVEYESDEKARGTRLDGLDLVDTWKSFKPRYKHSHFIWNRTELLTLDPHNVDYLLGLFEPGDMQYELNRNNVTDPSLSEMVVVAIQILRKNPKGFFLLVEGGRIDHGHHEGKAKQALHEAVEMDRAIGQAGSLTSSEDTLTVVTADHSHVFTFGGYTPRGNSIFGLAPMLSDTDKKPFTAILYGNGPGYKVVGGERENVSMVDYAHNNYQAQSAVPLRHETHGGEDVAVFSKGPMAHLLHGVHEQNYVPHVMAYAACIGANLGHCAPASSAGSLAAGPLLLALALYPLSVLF

[3] = target: T2, Alkaline phosphatase, tissue-nonspecific isozyme
[4] = target: T1, Intestinal-type alkaline phosphatase; test: activation of human intestinal alkaline phosphatase – biochemical, luminescent, uHTS hits, set 2, dose response (AID 488817); assay type: functional;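 note: potency of activators that raise enzyme activity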
[5] = target: Intestinal-type alkaline phosphatase (Mus musculus, UniProt P24822); test: PubChem AID 488874; assay type: functional
Intestinal-type alkaline phosphatase (Mus musculus, UniProt P24822), sequence (P24822 whole entry): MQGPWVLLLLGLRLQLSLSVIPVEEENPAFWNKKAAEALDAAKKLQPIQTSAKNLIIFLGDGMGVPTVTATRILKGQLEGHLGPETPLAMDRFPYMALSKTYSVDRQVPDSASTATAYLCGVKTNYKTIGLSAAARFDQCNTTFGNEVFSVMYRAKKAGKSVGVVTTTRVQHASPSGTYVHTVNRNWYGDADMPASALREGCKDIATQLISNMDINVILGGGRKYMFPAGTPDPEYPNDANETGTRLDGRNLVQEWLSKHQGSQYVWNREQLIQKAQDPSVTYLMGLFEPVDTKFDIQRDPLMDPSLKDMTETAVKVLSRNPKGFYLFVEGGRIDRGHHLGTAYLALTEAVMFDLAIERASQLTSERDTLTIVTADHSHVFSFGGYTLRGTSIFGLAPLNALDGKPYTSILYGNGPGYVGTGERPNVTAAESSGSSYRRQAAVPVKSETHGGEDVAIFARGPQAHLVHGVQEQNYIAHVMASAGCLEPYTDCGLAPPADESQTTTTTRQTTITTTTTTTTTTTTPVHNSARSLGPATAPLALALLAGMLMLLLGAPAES

cells = assay type: functional
CAAX prenyl protease 2 = target: T3, CAAX prenyl protease 2 (Homo sapiens, UniProt Q9Y256); test: inhibition of Ras-converting CAAX protease Rce1 – biochemical, yeast membranes, quenched-peptide fluorescence, cherry-pick, dose response (AID 588849)
T3 sequence (Q9Y256 whole entry): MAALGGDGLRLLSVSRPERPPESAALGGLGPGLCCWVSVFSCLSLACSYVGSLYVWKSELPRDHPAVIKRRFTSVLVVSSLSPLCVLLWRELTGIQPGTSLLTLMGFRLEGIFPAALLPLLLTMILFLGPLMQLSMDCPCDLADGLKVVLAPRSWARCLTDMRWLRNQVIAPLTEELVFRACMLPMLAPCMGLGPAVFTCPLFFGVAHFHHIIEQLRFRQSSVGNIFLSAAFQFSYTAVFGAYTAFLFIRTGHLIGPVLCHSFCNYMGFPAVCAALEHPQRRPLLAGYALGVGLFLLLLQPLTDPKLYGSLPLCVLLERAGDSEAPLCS

[6] = HepG2 cell cytotoxicity, dose response, cytotoxicity control for non-replicating M. tuberculosis project (AID 489018); assay type: functional; conditions: Mycobacterium tuberculosis
[7] = Vero E6 cell cytotoxicity, dose response, cytotoxicity control for non-replicating M. tuberculosis project, secondary assay (AID 492998); assay type: functional, VeroE6; conditions: Vero C1008
CAAX prenyl protease 1 = CAAX prenyl protease 1 (Saccharomyces cerevisiae S288c, UniProt P47154); test: yeast CAAX protease Ste24 inhibition – biochemical, S. cerevisiae, plate reader, cherry-pick, dose response (AID 488815)
CAAX prenyl protease 1, sequence (P47154 whole entry): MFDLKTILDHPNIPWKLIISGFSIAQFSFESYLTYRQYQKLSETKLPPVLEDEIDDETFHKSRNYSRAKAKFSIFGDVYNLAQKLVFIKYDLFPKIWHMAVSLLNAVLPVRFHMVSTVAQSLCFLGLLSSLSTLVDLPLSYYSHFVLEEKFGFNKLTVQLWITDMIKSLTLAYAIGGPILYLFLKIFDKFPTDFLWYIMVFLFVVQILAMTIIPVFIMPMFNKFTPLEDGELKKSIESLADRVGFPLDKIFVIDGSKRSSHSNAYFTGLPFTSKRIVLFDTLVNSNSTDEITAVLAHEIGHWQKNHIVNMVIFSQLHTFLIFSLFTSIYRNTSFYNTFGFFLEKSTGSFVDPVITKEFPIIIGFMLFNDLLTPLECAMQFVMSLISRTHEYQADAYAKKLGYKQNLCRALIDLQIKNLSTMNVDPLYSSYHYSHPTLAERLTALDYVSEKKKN

Trypsin = Trypsin (Sus scrofa, UniProt P00761); test: trypsin protease activity blockade – biochemical, quenched peptide fluorescence, cherry-pick, selectivity assay for Rce1 protease inhibitor project, dose response (AID 488789)
Trypsin, sequence (P00761 whole entry): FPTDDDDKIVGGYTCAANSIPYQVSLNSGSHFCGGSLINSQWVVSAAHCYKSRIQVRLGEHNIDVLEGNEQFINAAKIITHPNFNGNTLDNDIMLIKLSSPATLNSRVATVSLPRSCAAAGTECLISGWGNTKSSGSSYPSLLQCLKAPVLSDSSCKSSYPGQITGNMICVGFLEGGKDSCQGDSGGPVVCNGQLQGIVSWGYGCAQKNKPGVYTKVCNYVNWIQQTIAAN

HEK293 [8] = test: inhibition of NOD1-driven NF-kB reporter – cell-based, luminescence, uHTS, primary screen (AID 1578); assay type: functional; conditions: Homo sapiens
HEK293 [9] = test: NOD2 signaling inhibitors in MDP-stimulated cells, cell-based, uHTS, luminescence (AID 2001); assay type: functional; conditions: Homo sapiens
Tumor necrosis factor = Tumor necrosis factor (Homo sapiens, UniProt P01375); test: analog potency on TNFa NF-kB signaling – cell-based, revised, SAR follow-up (AID 2337); assay type: functional
Tumor necrosis factor, sequence (P01375 whole entry): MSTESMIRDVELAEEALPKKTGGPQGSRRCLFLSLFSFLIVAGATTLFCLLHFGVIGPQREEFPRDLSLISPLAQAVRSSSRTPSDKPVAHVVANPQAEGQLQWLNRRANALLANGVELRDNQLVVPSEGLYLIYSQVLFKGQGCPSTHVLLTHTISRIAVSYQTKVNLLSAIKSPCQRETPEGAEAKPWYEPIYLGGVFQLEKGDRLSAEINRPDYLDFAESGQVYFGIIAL

HEK293 [10] = test: cells; assay type: functional, cell-based; conditions: Homo sapiens
HEK293 [11] = test: cells; assay type: functional, cell-based; conditions: Homo sapiens; remark: listed apart in the source
HEK293 [12] = test: cells; conditions: Homo sapiens
HEK293 [13] = test: cells; assay type: functional, cell-based; conditions: Homo sapiens; remark: listed apart in the source
[14] = target: Nucleotide-binding oligomerization domain-containing protein 2 (Homo sapiens, UniProt Q9HC29); test: inhibition of NOD2-driven NF-kB reporter – cell-based, luminescence, uHTS, HEK293 (AID 1566); assay type: functional
Nucleotide-binding oligomerization domain-containing protein 2, sequence (Q9HC29 whole entry, the tested form may be a part): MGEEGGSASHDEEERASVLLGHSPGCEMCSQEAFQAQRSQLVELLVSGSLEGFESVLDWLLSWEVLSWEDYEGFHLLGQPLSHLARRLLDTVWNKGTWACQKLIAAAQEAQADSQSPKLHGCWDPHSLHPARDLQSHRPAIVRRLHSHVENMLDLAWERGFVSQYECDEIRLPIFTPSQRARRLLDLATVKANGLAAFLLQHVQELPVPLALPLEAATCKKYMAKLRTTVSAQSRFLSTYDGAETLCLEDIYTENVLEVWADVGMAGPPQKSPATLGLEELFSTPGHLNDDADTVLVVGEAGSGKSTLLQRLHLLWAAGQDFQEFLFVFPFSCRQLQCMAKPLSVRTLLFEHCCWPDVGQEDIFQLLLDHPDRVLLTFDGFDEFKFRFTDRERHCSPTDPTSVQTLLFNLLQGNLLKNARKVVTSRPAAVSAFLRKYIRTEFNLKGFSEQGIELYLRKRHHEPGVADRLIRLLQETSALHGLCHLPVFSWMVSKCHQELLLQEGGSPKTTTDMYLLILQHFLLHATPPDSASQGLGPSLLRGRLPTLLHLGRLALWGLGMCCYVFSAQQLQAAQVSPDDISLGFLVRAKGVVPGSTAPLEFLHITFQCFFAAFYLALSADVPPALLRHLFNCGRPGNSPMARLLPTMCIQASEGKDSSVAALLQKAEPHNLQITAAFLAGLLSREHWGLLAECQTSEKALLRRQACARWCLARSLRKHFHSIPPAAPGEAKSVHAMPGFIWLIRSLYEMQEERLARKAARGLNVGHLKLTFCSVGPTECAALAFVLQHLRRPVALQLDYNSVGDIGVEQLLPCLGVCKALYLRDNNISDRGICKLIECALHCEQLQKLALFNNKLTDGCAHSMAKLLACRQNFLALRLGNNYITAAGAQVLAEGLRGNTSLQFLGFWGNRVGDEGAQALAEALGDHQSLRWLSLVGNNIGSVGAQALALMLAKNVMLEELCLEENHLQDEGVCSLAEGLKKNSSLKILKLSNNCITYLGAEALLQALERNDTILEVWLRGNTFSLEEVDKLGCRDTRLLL

[15] = target: Nucleotide-binding oligomerization domain-containing protein 1 (Homo sapiens, UniProt Q9Y239); test: blockers of NOD1 pathway activity – revised, SAR follow-up (AID 2333); assay type: functional
Nucleotide-binding oligomerization domain-containing protein 1, sequence (Q9Y239 whole entry, the tested form may be a part): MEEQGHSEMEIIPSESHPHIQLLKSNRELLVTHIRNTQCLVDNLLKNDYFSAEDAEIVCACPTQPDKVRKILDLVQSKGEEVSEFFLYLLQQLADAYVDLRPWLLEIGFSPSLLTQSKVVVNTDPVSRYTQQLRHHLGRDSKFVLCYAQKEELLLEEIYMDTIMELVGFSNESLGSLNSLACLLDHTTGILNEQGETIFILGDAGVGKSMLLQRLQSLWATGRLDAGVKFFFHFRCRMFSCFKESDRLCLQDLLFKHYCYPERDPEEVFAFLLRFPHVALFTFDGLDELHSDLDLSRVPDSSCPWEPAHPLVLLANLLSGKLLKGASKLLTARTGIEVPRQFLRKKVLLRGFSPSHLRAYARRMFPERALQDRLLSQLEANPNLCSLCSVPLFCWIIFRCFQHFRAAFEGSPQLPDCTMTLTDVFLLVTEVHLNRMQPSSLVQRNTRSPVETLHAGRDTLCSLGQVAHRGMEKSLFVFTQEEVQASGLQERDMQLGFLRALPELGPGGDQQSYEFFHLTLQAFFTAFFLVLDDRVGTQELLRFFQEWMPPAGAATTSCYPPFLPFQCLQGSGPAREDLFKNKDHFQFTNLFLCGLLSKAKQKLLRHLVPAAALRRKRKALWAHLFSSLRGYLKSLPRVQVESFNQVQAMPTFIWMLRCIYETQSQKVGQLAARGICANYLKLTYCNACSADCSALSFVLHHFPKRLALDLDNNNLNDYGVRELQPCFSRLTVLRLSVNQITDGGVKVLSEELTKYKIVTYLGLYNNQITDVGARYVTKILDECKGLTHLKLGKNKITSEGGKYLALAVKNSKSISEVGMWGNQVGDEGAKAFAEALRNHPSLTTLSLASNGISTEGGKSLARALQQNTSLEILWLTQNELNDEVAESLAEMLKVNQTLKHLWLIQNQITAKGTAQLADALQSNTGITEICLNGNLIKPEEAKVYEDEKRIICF

T1 sequence (P09923 whole entry): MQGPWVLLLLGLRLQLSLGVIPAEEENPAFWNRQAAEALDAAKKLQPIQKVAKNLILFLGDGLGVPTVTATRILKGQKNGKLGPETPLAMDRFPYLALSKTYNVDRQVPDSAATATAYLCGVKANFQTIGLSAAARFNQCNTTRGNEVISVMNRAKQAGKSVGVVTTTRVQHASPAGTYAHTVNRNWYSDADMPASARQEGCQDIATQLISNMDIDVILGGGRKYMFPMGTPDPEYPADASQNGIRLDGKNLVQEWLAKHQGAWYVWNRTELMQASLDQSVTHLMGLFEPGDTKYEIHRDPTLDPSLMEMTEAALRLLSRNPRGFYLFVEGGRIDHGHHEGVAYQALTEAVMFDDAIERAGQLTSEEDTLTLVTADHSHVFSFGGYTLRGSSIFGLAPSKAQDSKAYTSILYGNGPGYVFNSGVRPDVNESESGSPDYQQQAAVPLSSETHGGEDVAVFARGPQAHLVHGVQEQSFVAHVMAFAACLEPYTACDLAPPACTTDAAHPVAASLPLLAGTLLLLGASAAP

What does the source list for `CCCOCC(O)CC(CC)C(=O)NNC(=S)Nc1ccccc1` (stereo not given)?
EC50 [1]: 14.1 µM (active); EC50 [2]: 16.2 µM (active); EC50 [3]: > 100 µM (not active); EC50 [4]: 15.1 µM (active); IC50 [5]: 69.5 µM (active)

With `Cc1nn2c(NCCN(C)C)c3c(nc2c1-c1ccccc1)CCCC3` as the compound, how does the IC50 (cells) read?
Its IC50 is 5.84 µM (active).

What about the AC50 (CAAX prenyl protease 2) of the same compound?
Its AC50 is 14.3 µM (active).

And the CC50 [6]?
Its CC50 is 16.4 µM (active).

And the CC50 [7]?
Its CC50 is > 20 µM (active).

And the AC50 (CAAX prenyl protease 1)?
Its AC50 is 4.57 µM (active).

What about the AC50 (Trypsin) of the same compound?
The AC50 was 12.7 µM (active).

For `O=C(Nc1nnc(S(=O)(=O)N2CCCCCC2)s1)c1ccc(Br)cc1`, which EC50 (HEK293 [8]) is on record?
The EC50 was 1.56 µM (active).

And the IC50 (HEK293 [9])?
The IC50 was 18.1 µM (inactive).

And the IC50 (Tumor necrosis factor)?
The IC50 was > 20 µM (inactive).

What about the IC50 (HEK293 [10]) of the same compound?
Its IC50 is > 20 µM (inactive).

What about the IC50 (HEK293 [11]) of the same compound?
The IC50 was 14.2 µM (active).

And the IC50 (HEK293 [12])?
Its IC50 is > 20 µM (inactive).

And the IC50 (HEK293 [13])?
The IC50 was > 20 µM (inactive).

What about the EC50 [14] of the same compound?
Its EC50 is 10.4 µM (active).

And the IC50 [15]?
Its IC50 is 5.53 µM (active).
